{"source": "patent US12018006B2", "about": "“Method of producing EPD and analogues thereof” (priority 2017, dated 2024)", "key": {"normal cells": {"system": "normal cells", "settings": "cited from earlier work"}, "ovarian cancer": {"system": "ovarian cancer", "settings": "cited from earlier work"}, "[1]": {"system": "ovarian cancer cell line A2780AD", "test": "Growth of multi-drug resistant ovarian cancer cell line A2780AD after 72 hrs", "assay_type": "cell-based, human", "settings": "for growth of the cell line, % of the control value: 72 hrs, control (medium) = 100%", "description": "(§1) The cytotoxic activity of the compounds was tested using methods as described earlier (van Haaften et al. Journal of Experimental & Clinical Cancer Research (2015) 34:38). In short, 3×10^4 cells of the ovarian cancer cell line JC (Van Haaften-Day et al. Cancer Res. 1983) were seeded in 24-well plates (Costar, Denmark) in DMEM/F12 medium (Invitrogen) containing 10% of Fetal Calf Serum (FCS, Sigma), 50 U penicillin and 50 μg/mL streptomycin (Invitrogen). The cells were incubated at 37° C. in a 9% CO2 incubator with 95% humidity. After 24 hours, solutions 1-6 were added to the cell cultures.\n(§2) Cytotoxic activity of each of the compounds was determined after 72 hours in a standard Presto blue assay (see Van Haaften et al. J Exp Clin Cancer Res. 2015 34(1): 38 for details on the method). Each compound's solution as described above was diluted 100, 200 and 400 times respectively.\nAlso the effect of synthetic EPD was tested on an ovarian cancer cell line A2780AD, ATCC using methods as described above, whereby the experiment was ended after 72 hrs. Cell line A2780AD, a multi-drug resistant human ovarian cancer cell line, is resistant to paclitaxel. It was shown that at 1, 1.5 and 2 μg/mL of synthetic EPD, the growth of the cell line after 72 hrs was reduced to 40%, 13% and 8% of the control value (100%, medium), respectively."}, "[2]": {"system": "ovarian cancer cell line JC", "test": "In vitro cytotoxic activity, Presto blue assay, ovarian cancer cell line JC", "assay_type": "cell-based", "description": "as §1, §2"}, "[3]": {"system": "cervical cancer cell line Siha", "test": "Effect of synthetic EPD on growth of cervical cancer cell line Siha", "assay_type": "cell-based", "settings": "for cancer cell growth reduced by: Siha, FIG. 1B", "description": "(§3) Further, the effect of synthetic EPD (1-3 μg/mL) was studied on normal fibroblasts and compared with the effect on a cervical cancer cell line Siha (FIG. 1B). […] At a concentration of 1 μg/mL, fibroblast growth was unaffected, whereas cancer cell growth was reduced by almost 20%. At a concentration of […], fibroblast growth was reduced by almost 20%, whereas cancer cell growth was reduced by more than 80%, and at a concentration of 3 μg/mL, fibroblast growth was reduced by 35%, whereas cancer cell growth was reduced by almost 97%."}, "normal fibroblasts": {"system": "normal fibroblasts", "test": "Effect of synthetic EPD on growth of normal fibroblasts", "assay_type": "cell-based", "settings": "FIG. 1B", "description": "as §3"}}, "data": [{"smiles": "C=C1C(=O)O[C@@H]2CC3=CCC[C@H](C)[C@@]3(C)C[C@H]12", "note": "[EPD, eremophila-1(10)-11(13)-dien-12,8β-olide]", "values": [{"measurement": "cytotoxic effects towards normal cells", "setting": "normal cells", "result": "not towards normal cells"}, {"measurement": "cytotoxic effects towards ovarian cancer", "setting": "ovarian cancer", "result": "potent cytotoxic effects"}]}, {"smiles": "CC(=O)O[C@H]1C(=O)[C@@]2(C)[C@H]([C@H](OC(=O)c3ccccc3)[C@]3(O)C[C@H](OC(=O)[C@H](O)[C@@H](NC(=O)c4ccccc4)c4ccccc4)C(C)=C1C3(C)C)[C@]1(OC(C)=O)CO[C@@H]1C[C@@H]2O", "note": "[paclitaxel, reference compound]", "values": [{"measurement": "resistance of cell line A2780AD to the drug", "setting": "[1]; 0.375 μg/mL", "result": "full resistance"}]}, {"smiles": "C=C1C(=O)O[C@H]2CC3=CCCC[C@]3(C)C[C@@H]12", "note": "(relative stereo) [racemic mixture of the (mono) methyl analogue, (rel3aS,4aR,9aS)-4α-methyl-3-methylene-3a,4,4a,5,6,7,9,9a-octahydronaphtho[2,3-b]furan-2(3H)-one]", "values": [{"measurement": "cytotoxic activity", "setting": "[2]; JC cells, 72 hours, solutions diluted 100, 200 and 400 times, FIG. 1A, compared with natural EPD", "result": "demonstrates cytotoxic activity"}]}, {"smiles": "C=C1C(=O)O[C@@H]2CC3=CCC[C@H](C)[C@@]3(C)C[C@H]12", "note": "(single isomer, unassigned) [synthetic EPD, eremophila-1(10)-11(13)-dien-12,8β-olide]", "values": [{"measurement": "dose-dependent effect on cancer cells compared with fibroblasts", "setting": "[3]; Siha vs normal fibroblasts, 1-3 μg/mL", "result": "much higher on cancer cells than on fibroblasts"}, {"measurement": "cancer cell growth reduced by", "setting": "[3]; synthetic EPD 1 μg/mL", "result": "~20", "unit": "%"}, {"measurement": "cancer cell growth reduced by", "setting": "[3]; synthetic EPD 3 μg/mL", "result": "~97", "unit": "%"}, {"measurement": "cancer cell growth reduced by", "setting": "[3]; synthetic EPD 2 g/mL", "result": "more than 80%"}, {"measurement": "inhibition of JC cells compared with paclitaxel", "setting": "[2]; JC as control cell line, FIG. 1C", "result": "at least as effective as paclitaxel"}, {"measurement": "growth of the cell line, % of the control value", "setting": "[1]; 1 μg/mL", "result": 40, "unit": "%"}, {"measurement": "growth of the cell line, % of the control value", "setting": "[1]; 1.5 μg/mL", "result": 13, "unit": "%"}, {"measurement": "growth of the cell line, % of the control value", "setting": "[1]; 2 μg/mL", "result": 8, "unit": "%"}, {"measurement": "fibroblast growth", "setting": "normal fibroblasts; synthetic EPD 1 μg/mL", "result": "unaffected"}, {"measurement": "fibroblast growth reduced by", "setting": "normal fibroblasts; synthetic EPD 2 μg/mL", "result": "~20", "unit": "%"}, {"measurement": "fibroblast growth reduced by", "setting": "normal fibroblasts; synthetic EPD 3 μg/mL", "result": 35, "unit": "%"}]}]}
